Source: article PMC9317316, “Synthesis and Evaluation of Some New 4H-Pyran Derivatives as Antioxidant, Antibacterial and Anti-HCT-116 Cells of CRC, with Molecular Docking, Antiproliferative, Apoptotic and ADME Investigations” (Pharmaceuticals, 2022)

Key:
[1] = tested on: caspase-3 gene in HCT-116 cells; assay: qRT-PCR expression profile of the caspase-3 gene in HCT-116 cells; assay type: cell-based, human; design: dose or concentration left out as unconfirmed; conditions: 24 h, as compared to the negative control
Description: Normally, apoptosis, or programmed cell death, is considered as a safeguard mechanism for managing stress and maintaining tissue homeostasis. It proceeds through a series of well-ordered biochemical cascades of events, which are regulated by a network of proteins. However, due to genetic and epigenetic mutations, deregulation of these proteins occurs, which results in evasion of apoptosis. This oncogenic transformation is a hallmark of human cancer, and it contributes to other tumorigenic events, including uncontrolled growth, accumulation of further genetic mutations, tumor angiogenesis and metastasis and chemotherapeutic resistance. Therefore, reinitiating selective cancer cell death is a fundamental goal in anticancer drug development. Research in cancer biology has provided fundamental insights into the apoptotic pathways and their deregulation in colon cancer. Moreover, it has identified the molecular targets for reinitiating selective tumor cell death, including antiapoptotic Bcl-2 family proteins, apoptosis inhibitors and activators of the TRAIL death receptor signaling pathway, as well as other apoptotic markers, such as caspases. Among the caspases, which play critical roles in apoptosis, are the initiators, including caspases-8 or 9, and the effectors, including caspase-3 and caspase-7. […] Thus, the real-time quantitative PCR analyses of caspase-3-gene levels following treatment with compounds 4d and 4K at a concentration […] for 24 h, were performed to investigate their potential as proapoptotic agents. […]
Total RNA was extracted from each cell culture flask using the RNeasy extraction kit (RNeasy micro kit, cat. no. 74004). […] The amount of extracted RNA was quantified by estimating the absorbance at 260 nm. The purity of the RNA was checked by measuring the ratio of the absorbance at 260 and 280 nm, where a ratio ranging from 1.8 to 2.0 was taken to be pure. […]
Quantitative real-time PCR was carried out with the Thermal Cycler Rotorgene Real-Time System II (Rotorgene, South Korea) with the SYBR kit. […]

S. enteric (ATCC 43972) = assay: Antibacterial agar diffusion method (inhibition zone); assay type: cell-based
How it was run: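 IC50 values come from residual colony counts versus initial inoculum: cells at 2 ×10^7 CFU/mL in sterile BHI incubated with compound under shaking, 60 min, 37 °C, then plated for 24 h. Zone assays used agar diffusion with ampicillin (10 µg/well) control.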

With `CC1=C(C(=O)OCc2ccccc2)C(c2ccc(C#N)cc2)C(C#N)=C(N)O1` (stereo not drawn) [4k, 6-Amino-5-cyano-4-(4-cyano-phenyl)-2-methyl-4H-pyran-3-carboxylic acid benzyl ester] the “caspase-3 gene transcription level, fold increase” value [1] was 4.62 fold.

With `COc1cc(C2C(C#N)=C(N)OC(C)=C2C(=O)OCc2ccccc2)cc(OC)c1OC` (stereo not drawn) [4d, 6-Amino-5-cyano-2-methyl-4-(3,4,5-trimethoxy-phenyl)-4H-pyran-3-carboxylic acid benzyl ester] the “IZ (mm)” value (S. enteric (ATCC 43972)) was 7.0 ± 0.0 mm and the “caspase-3 gene transcription level, fold increase” value [1] was 2.55 fold.
